From patent US6528523B2, “Farnesyl protein transferase inhibitors” (Schering Corporation, priority 2000, dated 2003)

Experiments:
Human tumor cells = test: Soft agar assay (anchorage-independent growth); assay type: cell-based; details: colony outgrowth 10-16 days
Procedure: Anchorage-independent growth is a characteristic of tumorigenic cell lines. Human tumor cells are suspended in growth medium containing 0.3% agarose and an indicated concentration of a farnesyl transferase inhibitor. The solution is overlayed onto growth medium solidified with 0.6% agarose containing the same concentration of farnesyl transferase inhibitor as the top layer. After the top layer is solidified, plates are incubated for 10-16 days at 37° C. under 5% CO2 to allow colony outgrowth. After incubation, the colonies are stained by overlaying the agar with a solution of MTT (3-[4,5-dimethylthiazol-2-yl]-2,5-diphenyltetrazolium bromide, Thiazolyl blue) (1 mg/mL in PBS). Colonies are counted and the IC50's determined.

[1] = target: T1, Farnesyl protein transferase (FPT) (Rattus norvegicus, UniProt Q02293+Q04631); test: In vitro enzyme assay: inhibition of farnesyl protein transferase; assay type: biochemical; details: transfer of [3H]farnesyl from [3H]farnesyl pyrophosphate to Ras-CVLS
T1 construct: partially purified from rat brain by ammonium sulfate fractionation followed by Q-Sepharose; from tissue; host or cells: rat brain
Procedure: 1. In Vitro Enzyme Assay:
Human farnesyl protein transferase was also expressed in E. coli, using cDNA clones encoding both the a and b subunits. […] Human farnesyl protein transferase was partially-purified from the soluble protein fraction of E. coli as described above. […] Two forms of val^12-Ha-Ras protein were prepared as substrates for these enzymes, differing in their carboxy terminal sequence. One form terminated in cysteine-valine-leucine-serine (Ras-CVLS) the other in cystein-valine-leucine-leucine (Ras-CVLL). Ras-CVLS is a substrate for the farnesyl protein transferase while Ras-CVLL is a substrate for geranylgeranyl protein transferase I. The cDNAs encoding these proteins were constructed so that the proteins contain an amino-terminal extension of 6 histidine residues. Both proteins were expressed in Escherichia coli and purified using metal chelate affinity chromatography. The radio labelled isoprenyl pyrophosphate substrates, [^3H]farnesyl pyrophosphate and [^3H] geranylgeranyl pyrophosphate, were purchased from DuPont/New England Nuclear.
The reaction was allowed to proceed for 30 minutes at room temperature and then stopped with 0.5 ml of 4% sodium dodecyl sulfate (SDS) followed by 0.5 ml of cold 30% TCA. Samples were allowed to sit on ice for 45 minutes and precipitated Ras protein was then collected on GF/C filter paper mats using a Brandel cell harvester. […] Percent inhibition was calculated relative to the DMSO vehicle control.

T1 sequence (Q02293 whole entry, one chain of several): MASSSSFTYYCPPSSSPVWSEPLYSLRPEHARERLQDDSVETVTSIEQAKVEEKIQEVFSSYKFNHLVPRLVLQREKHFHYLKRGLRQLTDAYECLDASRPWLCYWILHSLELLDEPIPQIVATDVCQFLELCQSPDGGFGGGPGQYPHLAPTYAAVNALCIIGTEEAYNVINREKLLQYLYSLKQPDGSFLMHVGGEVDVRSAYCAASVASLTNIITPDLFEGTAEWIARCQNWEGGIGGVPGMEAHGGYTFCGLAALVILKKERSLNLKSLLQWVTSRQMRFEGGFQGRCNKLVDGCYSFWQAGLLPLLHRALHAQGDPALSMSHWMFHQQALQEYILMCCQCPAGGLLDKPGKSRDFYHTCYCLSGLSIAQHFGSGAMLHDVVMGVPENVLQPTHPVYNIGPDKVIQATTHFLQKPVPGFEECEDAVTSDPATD

Row | Compound | IC50 (Human tumor cells) [nM] | IC50 [1] [nM] | melting point [°C]
1 | CS(=O)(=O)N1CCC(C2c3ncc(Br)cc3C=Cc3cc(Cl)cc(Br)c32)CC1 (single isomer, unassigned) [Compound 13] | > 500 | 3.3 | 84 to 85
2 | CS(=O)(=O)N1CCC(C2c3ncc(Br)cc3C=Cc3cc(Cl)cc(Br)c32)CC1 (single isomer, unassigned) [Compound 14] | – | > 18 | 91 to 92
3 | O=C(Cc1cc[n+]([O-])cc1)N1CCC(C2c3ncc(Br)cc3C=Cc3cc(Cl)cc(Br)c32)CC1 (single isomer, unassigned) [Compound 11] | 30 | 0.32 | 137 to 139
4 | NC(=O)N1CCC(CC(=O)N2CCC(C3c4ncc(Br)cc4C=Cc4cc(Cl)cc(Br)c43)CC2)CC1 (single isomer, unassigned) [Compound 15] | 50 | 0.4 | 146 to 147
5 | O=C(Cc1cc[n+]([O-])cc1)N1CCC(C2c3ncc(Br)cc3C=Cc3cc(Cl)cc(Br)c32)CC1 (single isomer, unassigned) [Compound 12] | – | > 17 | 142 to 143
6 | NC(=O)N1CCC(CC(=O)N2CCC(C3c4ncc(Br)cc4C=Cc4cc(Cl)cc(Br)c43)CC2)CC1 (single isomer, unassigned) [Compound 16] | – | 16 | 142 to 143
